Assay [1] deals with human kinases in K562 cell extract. Briefly: Kinobead competition assay, kinome-wide summary. Type of assay: binding. Particulars: for Human kinases with apparent pKd ≥ 4.7 (N = 2) / Human kinases with apparent pKd ≥ 6 (N = 2): K562 extract, number of kinases, 20 μM-0.03 μM compound. The procedure: Kinobeads were prepared as described.
A further assay has as its target MAPK1 (Homo sapiens, UniProt P28482). As to the kind of experiment: biochemical.
For a further assay, the target named is T1, AXL (Homo sapiens, UniProt P30530).
T1 sequence (P30530 1-894): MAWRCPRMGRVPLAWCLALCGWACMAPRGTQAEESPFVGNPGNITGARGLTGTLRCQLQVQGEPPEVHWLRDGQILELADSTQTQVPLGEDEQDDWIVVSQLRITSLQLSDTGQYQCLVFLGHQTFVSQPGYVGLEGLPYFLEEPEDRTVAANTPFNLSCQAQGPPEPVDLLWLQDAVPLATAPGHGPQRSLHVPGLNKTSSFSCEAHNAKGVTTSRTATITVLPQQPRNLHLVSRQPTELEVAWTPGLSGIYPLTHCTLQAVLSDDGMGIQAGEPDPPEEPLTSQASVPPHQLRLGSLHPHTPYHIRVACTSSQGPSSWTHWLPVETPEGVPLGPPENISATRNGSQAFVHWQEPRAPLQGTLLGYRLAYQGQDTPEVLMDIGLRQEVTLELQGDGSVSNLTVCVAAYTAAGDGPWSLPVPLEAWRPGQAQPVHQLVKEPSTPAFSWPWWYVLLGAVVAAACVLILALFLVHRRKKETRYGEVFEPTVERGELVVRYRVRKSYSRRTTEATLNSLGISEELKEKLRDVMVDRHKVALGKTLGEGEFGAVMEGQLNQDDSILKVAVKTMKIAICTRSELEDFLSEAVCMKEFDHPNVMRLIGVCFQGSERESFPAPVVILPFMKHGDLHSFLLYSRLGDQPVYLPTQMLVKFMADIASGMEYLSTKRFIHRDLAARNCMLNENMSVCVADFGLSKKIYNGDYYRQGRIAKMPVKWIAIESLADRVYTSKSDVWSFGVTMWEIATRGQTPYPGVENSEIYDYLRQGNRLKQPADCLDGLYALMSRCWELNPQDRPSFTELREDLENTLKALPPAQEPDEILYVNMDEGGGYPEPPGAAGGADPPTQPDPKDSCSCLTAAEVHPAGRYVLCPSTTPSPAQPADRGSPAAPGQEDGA
Briefly: biochemical.

A further assay has as its target FYN (Homo sapiens, UniProt P06241). Briefly: biochemical.
The target in a further assay is CSK (Homo sapiens, UniProt P41240). As to the kind of experiment: biochemical.
The target in the next assay is TNIK (Homo sapiens, UniProt Q9UKE5). As to the kind of experiment: biochemical.
The next assay has as its target NTRK1 (Homo sapiens, UniProt P04629). Briefly: biochemical.
For the next assay, the target named is T2, TBK1 (Homo sapiens, UniProt Q9UHD2).
T2 sequence (Q9UHD2 1-729): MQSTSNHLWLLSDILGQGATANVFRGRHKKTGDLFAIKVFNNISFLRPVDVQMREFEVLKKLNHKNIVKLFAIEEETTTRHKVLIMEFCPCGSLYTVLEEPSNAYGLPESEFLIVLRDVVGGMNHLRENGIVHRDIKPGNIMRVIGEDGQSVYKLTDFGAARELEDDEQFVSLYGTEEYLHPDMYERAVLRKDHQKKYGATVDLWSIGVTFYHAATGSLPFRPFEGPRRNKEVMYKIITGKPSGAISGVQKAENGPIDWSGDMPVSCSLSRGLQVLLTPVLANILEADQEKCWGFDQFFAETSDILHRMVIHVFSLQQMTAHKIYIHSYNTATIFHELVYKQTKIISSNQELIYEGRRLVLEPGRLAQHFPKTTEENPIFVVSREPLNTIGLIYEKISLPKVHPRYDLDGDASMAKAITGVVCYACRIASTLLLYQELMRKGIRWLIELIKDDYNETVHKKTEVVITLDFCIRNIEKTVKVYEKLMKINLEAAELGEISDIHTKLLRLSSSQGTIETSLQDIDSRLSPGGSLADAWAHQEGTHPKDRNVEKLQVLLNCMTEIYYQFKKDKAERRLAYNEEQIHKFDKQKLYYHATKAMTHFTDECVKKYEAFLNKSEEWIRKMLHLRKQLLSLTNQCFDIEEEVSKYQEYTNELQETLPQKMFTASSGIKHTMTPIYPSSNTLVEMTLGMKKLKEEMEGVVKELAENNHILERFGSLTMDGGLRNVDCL
Briefly: biochemical.

The next assay deals with DYRK1A (Homo sapiens, UniProt Q13627). Briefly: biochemical.
Another assay concerns the target T3, STRADA (Homo sapiens, UniProt Q7RTN6).
T3 sequence (Q7RTN6 1-431): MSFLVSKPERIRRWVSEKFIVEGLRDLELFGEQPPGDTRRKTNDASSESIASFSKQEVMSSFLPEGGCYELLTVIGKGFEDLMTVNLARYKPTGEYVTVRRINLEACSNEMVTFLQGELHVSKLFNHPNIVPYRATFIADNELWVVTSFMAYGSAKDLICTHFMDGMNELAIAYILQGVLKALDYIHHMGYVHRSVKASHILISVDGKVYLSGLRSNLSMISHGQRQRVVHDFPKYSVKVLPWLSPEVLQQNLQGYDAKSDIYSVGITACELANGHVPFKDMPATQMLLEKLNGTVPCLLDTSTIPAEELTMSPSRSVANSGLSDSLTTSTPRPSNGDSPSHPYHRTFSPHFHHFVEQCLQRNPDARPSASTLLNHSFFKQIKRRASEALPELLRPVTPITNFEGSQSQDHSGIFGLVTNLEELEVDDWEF
Briefly: biochemical.

The target in another assay is CSNK1A1 (Homo sapiens, UniProt P48729). As to the kind of experiment: biochemical.
A further assay has as its target LIMK1 (Homo sapiens, UniProt P53667). Briefly: biochemical.
The target in the next assay is STK39 (Homo sapiens, UniProt Q9UEW8). As to the kind of experiment: biochemical.
The target of the next assay is MAPK14 (Homo sapiens, UniProt Q16539). As to the kind of experiment: biochemical.

Values joined by “and” are separate entries in the source; they are usually repeats but may differ in a detail not shown here. Equal values may be shown once.

Chain of CSNK1A1 (P48729 whole entry): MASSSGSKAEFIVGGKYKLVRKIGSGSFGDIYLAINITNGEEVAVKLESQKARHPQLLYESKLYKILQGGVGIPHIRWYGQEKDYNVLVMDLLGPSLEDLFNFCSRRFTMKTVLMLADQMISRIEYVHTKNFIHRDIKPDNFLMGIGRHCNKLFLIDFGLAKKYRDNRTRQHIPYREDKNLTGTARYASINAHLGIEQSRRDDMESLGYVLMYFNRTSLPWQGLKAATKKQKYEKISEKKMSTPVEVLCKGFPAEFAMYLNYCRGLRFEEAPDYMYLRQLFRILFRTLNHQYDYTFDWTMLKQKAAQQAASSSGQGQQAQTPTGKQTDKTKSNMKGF
Chain of TNIK (Q9UKE5 whole entry): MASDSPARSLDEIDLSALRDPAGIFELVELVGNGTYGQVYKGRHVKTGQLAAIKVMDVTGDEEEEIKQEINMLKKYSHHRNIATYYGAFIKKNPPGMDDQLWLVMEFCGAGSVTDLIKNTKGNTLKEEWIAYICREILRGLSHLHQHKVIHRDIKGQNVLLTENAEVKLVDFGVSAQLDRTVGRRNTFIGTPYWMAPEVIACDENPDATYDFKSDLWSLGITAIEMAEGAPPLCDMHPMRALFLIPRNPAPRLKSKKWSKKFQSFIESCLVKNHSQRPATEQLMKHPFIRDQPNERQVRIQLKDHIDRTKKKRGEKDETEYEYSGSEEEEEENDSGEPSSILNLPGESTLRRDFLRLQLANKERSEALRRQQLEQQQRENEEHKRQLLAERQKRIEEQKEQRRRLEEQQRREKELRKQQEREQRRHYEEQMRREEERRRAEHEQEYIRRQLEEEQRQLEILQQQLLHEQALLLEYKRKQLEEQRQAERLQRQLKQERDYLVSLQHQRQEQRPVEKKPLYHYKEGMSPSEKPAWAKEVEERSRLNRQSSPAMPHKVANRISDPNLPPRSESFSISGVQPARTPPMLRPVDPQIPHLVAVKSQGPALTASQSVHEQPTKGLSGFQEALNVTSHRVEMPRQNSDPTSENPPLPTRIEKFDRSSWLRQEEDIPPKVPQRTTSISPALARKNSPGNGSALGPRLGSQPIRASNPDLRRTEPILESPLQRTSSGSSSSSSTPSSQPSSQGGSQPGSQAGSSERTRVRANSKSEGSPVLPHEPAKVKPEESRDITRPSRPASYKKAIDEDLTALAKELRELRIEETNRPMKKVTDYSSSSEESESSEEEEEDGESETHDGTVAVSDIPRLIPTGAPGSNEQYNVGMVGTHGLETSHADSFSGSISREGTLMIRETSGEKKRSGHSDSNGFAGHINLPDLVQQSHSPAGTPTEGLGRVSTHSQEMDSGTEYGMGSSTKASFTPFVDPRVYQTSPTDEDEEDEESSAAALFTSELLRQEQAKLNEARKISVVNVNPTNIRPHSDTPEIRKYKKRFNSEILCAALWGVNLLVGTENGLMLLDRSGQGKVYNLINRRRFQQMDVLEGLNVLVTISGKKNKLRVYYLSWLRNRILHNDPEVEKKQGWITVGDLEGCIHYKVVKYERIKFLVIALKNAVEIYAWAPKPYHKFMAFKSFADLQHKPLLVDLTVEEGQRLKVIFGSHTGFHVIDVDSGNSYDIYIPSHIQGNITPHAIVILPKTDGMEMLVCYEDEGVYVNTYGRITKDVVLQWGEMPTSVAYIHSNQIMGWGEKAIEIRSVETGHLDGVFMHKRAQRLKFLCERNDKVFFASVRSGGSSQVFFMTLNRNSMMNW
Chain of MAPK1 (P28482 whole entry): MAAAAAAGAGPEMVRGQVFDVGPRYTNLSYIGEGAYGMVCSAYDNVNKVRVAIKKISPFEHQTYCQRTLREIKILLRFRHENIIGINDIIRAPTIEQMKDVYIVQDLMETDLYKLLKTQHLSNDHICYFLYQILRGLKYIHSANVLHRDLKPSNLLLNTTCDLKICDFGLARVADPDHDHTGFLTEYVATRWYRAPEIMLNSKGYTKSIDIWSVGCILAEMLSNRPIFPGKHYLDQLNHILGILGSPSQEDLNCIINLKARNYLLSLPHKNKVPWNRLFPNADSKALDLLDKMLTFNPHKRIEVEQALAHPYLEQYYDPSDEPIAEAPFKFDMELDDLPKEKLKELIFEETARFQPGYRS
Chain of NTRK1 (P04629 whole entry): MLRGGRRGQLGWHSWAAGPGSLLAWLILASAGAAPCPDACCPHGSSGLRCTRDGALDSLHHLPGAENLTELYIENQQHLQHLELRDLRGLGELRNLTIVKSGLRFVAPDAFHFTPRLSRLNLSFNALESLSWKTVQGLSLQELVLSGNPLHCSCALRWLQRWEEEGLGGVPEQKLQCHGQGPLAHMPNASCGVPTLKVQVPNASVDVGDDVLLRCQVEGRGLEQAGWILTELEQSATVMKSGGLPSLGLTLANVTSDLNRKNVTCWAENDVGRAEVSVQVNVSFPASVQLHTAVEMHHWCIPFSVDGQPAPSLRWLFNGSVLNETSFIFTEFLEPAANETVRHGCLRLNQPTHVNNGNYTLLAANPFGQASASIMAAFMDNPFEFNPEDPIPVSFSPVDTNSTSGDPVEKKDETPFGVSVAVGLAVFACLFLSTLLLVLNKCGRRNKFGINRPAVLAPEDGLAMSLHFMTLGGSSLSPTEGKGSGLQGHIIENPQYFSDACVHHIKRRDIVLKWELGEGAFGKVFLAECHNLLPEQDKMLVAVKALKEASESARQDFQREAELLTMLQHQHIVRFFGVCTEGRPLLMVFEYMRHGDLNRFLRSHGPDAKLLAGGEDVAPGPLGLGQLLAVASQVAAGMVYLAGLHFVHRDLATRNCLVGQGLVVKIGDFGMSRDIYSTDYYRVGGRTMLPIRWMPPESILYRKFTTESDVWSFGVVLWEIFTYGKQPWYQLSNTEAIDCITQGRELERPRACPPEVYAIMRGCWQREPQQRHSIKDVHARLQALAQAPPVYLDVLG
Chain of LIMK1 (P53667 whole entry): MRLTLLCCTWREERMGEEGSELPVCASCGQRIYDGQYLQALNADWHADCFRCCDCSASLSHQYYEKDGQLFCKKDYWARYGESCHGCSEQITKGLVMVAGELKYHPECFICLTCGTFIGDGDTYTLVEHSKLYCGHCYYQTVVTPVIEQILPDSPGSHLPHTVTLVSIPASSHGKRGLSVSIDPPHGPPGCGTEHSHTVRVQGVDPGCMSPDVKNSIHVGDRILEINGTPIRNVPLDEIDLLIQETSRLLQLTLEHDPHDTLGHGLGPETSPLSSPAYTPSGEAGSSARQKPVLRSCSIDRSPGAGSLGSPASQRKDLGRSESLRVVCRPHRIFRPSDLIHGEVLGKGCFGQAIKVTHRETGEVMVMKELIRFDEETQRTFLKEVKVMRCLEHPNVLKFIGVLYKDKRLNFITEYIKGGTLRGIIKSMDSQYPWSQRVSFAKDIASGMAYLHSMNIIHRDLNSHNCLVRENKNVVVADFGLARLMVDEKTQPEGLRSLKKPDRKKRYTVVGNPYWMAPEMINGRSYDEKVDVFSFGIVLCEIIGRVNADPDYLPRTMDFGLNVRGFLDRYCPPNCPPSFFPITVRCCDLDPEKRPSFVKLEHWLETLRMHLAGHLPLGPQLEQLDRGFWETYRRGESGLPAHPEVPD
Chain of FYN (P06241 whole entry): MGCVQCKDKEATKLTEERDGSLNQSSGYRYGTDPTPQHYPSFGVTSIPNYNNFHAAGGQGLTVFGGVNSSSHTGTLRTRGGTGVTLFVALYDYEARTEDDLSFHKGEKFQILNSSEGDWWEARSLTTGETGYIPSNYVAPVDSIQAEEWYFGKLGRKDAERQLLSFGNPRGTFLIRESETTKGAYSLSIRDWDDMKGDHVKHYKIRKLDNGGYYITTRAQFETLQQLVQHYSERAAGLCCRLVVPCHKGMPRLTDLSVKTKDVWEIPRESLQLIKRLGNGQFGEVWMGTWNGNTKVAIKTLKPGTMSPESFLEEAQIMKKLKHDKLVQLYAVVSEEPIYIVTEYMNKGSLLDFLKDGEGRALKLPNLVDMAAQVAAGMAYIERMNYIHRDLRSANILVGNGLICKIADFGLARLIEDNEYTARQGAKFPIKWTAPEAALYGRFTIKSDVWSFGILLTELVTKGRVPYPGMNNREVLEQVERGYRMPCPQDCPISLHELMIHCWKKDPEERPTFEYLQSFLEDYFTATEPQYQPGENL
Chain of MAPK14 (Q16539 whole entry): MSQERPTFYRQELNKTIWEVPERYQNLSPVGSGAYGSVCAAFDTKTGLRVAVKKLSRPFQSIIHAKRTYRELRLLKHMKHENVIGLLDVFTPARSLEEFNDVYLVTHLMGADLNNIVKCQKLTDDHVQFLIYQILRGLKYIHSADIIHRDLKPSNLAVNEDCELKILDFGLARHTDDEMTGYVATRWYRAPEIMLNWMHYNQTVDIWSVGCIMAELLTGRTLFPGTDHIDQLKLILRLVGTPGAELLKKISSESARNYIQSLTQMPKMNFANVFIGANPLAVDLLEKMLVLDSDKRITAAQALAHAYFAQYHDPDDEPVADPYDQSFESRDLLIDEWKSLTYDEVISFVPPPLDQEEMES
Chain of CSK (P41240 whole entry): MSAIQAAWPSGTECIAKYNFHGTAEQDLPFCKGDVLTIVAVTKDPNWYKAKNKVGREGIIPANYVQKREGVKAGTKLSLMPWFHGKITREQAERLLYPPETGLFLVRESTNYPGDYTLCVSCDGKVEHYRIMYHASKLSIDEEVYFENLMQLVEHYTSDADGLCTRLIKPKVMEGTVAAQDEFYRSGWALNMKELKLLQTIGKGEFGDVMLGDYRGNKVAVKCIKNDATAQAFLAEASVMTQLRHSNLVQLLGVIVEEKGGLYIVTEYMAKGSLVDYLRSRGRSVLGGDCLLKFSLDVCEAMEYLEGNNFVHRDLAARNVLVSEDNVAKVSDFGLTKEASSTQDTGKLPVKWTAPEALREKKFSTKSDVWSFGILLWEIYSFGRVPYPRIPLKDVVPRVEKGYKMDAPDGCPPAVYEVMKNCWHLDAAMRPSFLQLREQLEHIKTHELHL

One may read the IC50 as the concentration that inhibits the measured activity by half. Higher therefore signals a need for much substance. Consider `CN1CCN(c2ccc(Nc3ncc(C#N)c(Nc4ccccc4C(N)=O)n3)cc2)CC1.Cl` [TCMDC-134116], for which the “Share of human kinases tested bound with high affinity (pKd ≥ 6)” value in assay [1] (K562 extract kinobeads) is reported as “two thirds”. Moreover, the “Human kinases with apparent pKd ≥ 4.7 (N = 2)” value in assay [1] came out at 126. For the same molecule, in assay [1], the “Human kinases with apparent pKd ≥ 6 (N = 2)” value is 96. Besides, the IC50 against MAPK1 is > 20000 nM; against AXL it was 500 nM and 550 nM; at FYN, 300 nM and 240 nM; against CSK it was 4100 nM; against TNIK it was 200 nM and 250 nM; at NTRK1, 2200 nM and 1500 nM. Besides, the IC50 at TBK1 is 530 nM and 510 nM; on DYRK1A it was 490 nM and 450 nM; against STRADA, > 20000 nM; at CSNK1A1, 960 nM and 1400 nM; at LIMK1, 220 nM; on STK39, 67 nM. Further, on MAPK14, the concentration for half-maximal inhibition (IC50) was > 20000 nM.
Regarding `Cl.NCC1(c2nc(-c3ccc(Cl)c(O)c3)c(-c3ccncc3)[nH]2)CCCCC1` [TCMDC-141154], the “Human kinases with apparent pKd ≥ 4.7 (N = 2)” value in assay [1] stood at 47. In addition, the “Human kinases with apparent pKd ≥ 6 (N = 2)” value in [1] worked out at 26. Moreover, the IC50 against MAPK1 is > 20000 nM; on AXL it was > 20000 nM; against FYN, 190 nM and 170 nM; at CSK it was 4400 nM; on TNIK, 290 nM; against NTRK1 it was > 20000 nM. The IC50 on TBK1 is > 20000 nM; at DYRK1A, > 20000 nM; on STRADA, > 20000 nM; at CSNK1A1, 290 nM and 330 nM; against LIMK1, > 20000 nM; on STK39, > 20000 nM. The IC50 against MAPK14 is ≤ 32 nM.
Take `CN(C)CC(O)COc1ccc(Nc2ncc([N+](=O)[O-])c(Nc3ccccc3O)n2)cc1.O=C(O)C(F)(F)F` (stereo not shown) [TCMDC-141399]: the “Human kinases with apparent pKd ≥ 4.7 (N = 2)” value in assay [1] is on record as 63. Besides, the “Human kinases with apparent pKd ≥ 6 (N = 2)” value in [1] stood at 24. Further, the IC50 at MAPK1 was > 20000 nM; against AXL it was > 20000 nM; at FYN, > 20000 nM; against CSK, > 20000 nM; on TNIK it was 820 nM; against NTRK1, > 20000 nM. Moreover, the half-maximal inhibitory concentration (IC50) on TBK1 was > 20000 nM; at DYRK1A, 4900 nM; on STRADA it was > 20000 nM; on CSNK1A1 it was 9900 nM; against LIMK1 it was > 20000 nM; against STK39 it was 5500 nM. The IC50 against MAPK14 was > 20000 nM.

(Values after article PMC4774911, “Biochemical Screening of Five Protein Kinases from Plasmodium falciparum against 14,000 Cell-Active Compounds” (PLoS ONE, 2016).)
